Test results as given in PubChem BioAssay AID1259407 (Chemical Carcinogenesis Research Information System (CCRIS), 2018).
Calls of active or inactive are those of the source. The rule behind the calls is not given here.

System: CCRIS mutagenicity, Ames/micronucleus/aberration tests
Test: CCRIS mutagenicity studies

SMILES: C#C[C@]1(O)CC[C@H]2[C@@H]3CCc4cc(OC)ccc4[C@H]3CC[C@@]21C
- mutagenic call (End Point: IN VITRO CHROMOSOMAL ABERRATIONS, Test System: HUMAN PERIPHERAL LYMPHOCYTES, Metabolic Activation: NONE): active; positive (total aberrations excluding gaps); positive at higher dose levels
- mutagenic call (End Point: IN VIVO CHROMOSOMAL ABERRATIONS, Test System: BONE MARROW CELLS, Species: MOUSE, Strain/Sex: SWISS/MALE, Route: IP INJECTION (ONCE)): active; positive
- mutagenic call (End Point: IN VIVO MICRONUCLEUS, Test System: BONE MARROW POLYCHROMATIC ERYTHROCYTES, Species: MOUSE, Strain/Sex: SWISS/MALE, Route: IP INJECTION (SINGLE DOSE)): active; positive
- mutagenic call (Test System: AMES SALMONELLA TYPHIMURIUM, Strain/Indicator: TA97A, Metabolic Activation: NONE, Method: STANDARD PLATE): inactive; negative
- mutagenic call (Test System: AMES SALMONELLA TYPHIMURIUM, Strain/Indicator: TA97A, Metabolic Activation: RAT, LIVER, S-9, PHENOBARBITONE, Method: PREINCUBATION): inactive; negative
- mutagenic call (Test System: AMES SALMONELLA TYPHIMURIUM, Strain/Indicator: TA98, Metabolic Activation: NONE, Method: STANDARD PLATE): inactive; negative
- mutagenic call (Test System: AMES SALMONELLA TYPHIMURIUM, Strain/Indicator: TA98, Metabolic Activation: RAT, LIVER, S-9, PHENOBARBITONE, Method: PREINCUBATION): inactive; negative
- mutagenic call (Test System: AMES SALMONELLA TYPHIMURIUM, Strain/Indicator: TA100, Metabolic Activation: NONE, Method: STANDARD PLATE): inactive; negative
- mutagenic call (Test System: AMES SALMONELLA TYPHIMURIUM, Strain/Indicator: TA100, Metabolic Activation: RAT, LIVER, S-9, PHENOBARBITONE, Method: PREINCUBATION): inactive; negative
- mutagenic call (Test System: AMES SALMONELLA TYPHIMURIUM, Strain/Indicator: TA1535, Metabolic Activation: NONE, Method: STANDARD PLATE): inactive; negative
- mutagenic call (Test System: AMES SALMONELLA TYPHIMURIUM, Strain/Indicator: TA1535, Metabolic Activation: RAT, LIVER, S-9, PHENOBARBITONE, Method: PREINCUBATION): inactive; negative
- mutagenic call (Test System: HOST-MEDIATED ASSAY WITH SALMONELLA, Strain/Indicator: TA97A, Metabolic Activation: MALE SWISS MOUSE, SALMONELLA ADMINISTERED 4 HR AFTER 2ND INJECTION: SACRIFICE 2 HR LATER, Method: 2 INJECTIONS AT 12 HR INTERVAL): inactive; negative
- mutagenic call (Test System: HOST-MEDIATED ASSAY WITH SALMONELLA, Strain/Indicator: TA98, Metabolic Activation: MALE SWISS MOUSE, SALMONELLA ADMINISTERED 4 HR AFTER 2ND INJECTION: SACRIFICE 2 HR LATER, Method: 2 INJECTIONS AT 12 HR INTERVAL): inactive; negative
- mutagenic call (Test System: HOST-MEDIATED ASSAY WITH SALMONELLA, Strain/Indicator: TA100, Metabolic Activation: MALE SWISS MOUSE, SALMONELLA ADMINISTERED 4 HR AFTER 2ND INJECTION: SACRIFICE 2 HR LATER, Method: 2 INJECTIONS AT 12 HR INTERVAL): inactive; negative
- mutagenic call (Test System: HOST-MEDIATED ASSAY WITH SALMONELLA, Strain/Indicator: TA1535, Metabolic Activation: MALE SWISS MOUSE, SALMONELLA ADMINISTERED 4 HR AFTER 2ND INJECTION: SACRIFICE 2 HR LATER, Method: 2 INJECTIONS AT 12 HR INTERVAL): inactive; negative
